Laboratory results as given in PubChem BioAssay AID1259407 (Chemical Carcinogenesis Research Information System (CCRIS), 2018).
Active and inactive are the calls of the source. The rule behind the calls is not given here.

Test system: CCRIS mutagenicity, Ames/micronucleus/aberration tests
Test: CCRIS mutagenicity studies
[1] = Test System: AMES SALMONELLA TYPHIMURIUM, Strain/Indicator: TA100, Metabolic Activation: NONE, Method: STANDARD PLATE
[2] = Test System: AMES SALMONELLA TYPHIMURIUM, Strain/Indicator: TA98, Metabolic Activation: NONE, Method: PREINCUBATION
[3] = Test System: AMES SALMONELLA TYPHIMURIUM, Strain/Indicator: TA100, Metabolic Activation: NONE, Method: PREINCUBATION
[4] = Test System: AMES SALMONELLA TYPHIMURIUM, Strain/Indicator: TA1535, Metabolic Activation: NONE, Method: PREINCUBATION

SMILES: Cc1ccc(NC2OC[C@@H](O)[C@H](O)[C@H]2O)cc1 (some centres not stated)
- mutagenic call (Test System: AMES SALMONELLA TYPHIMURIUM, Strain/Indicator: TA100, Metabolic Activation: NONE, Method: LIQUID INCUBATION): active; positive

SMILES: C1O[C@@H]1[C@H]1CO1
- mutagenic call (End Point: IN VITRO CHROMOSOMAL ABERRATIONS, Test System: HUMAN PERIPHERAL LYMPHOCYTES, Metabolic Activation: NONE, Method: FISH (CHROMOSOME PAINTING)): active; positive (structural changes)
- mutagenic call (End Point: IN VIVO MICRONUCLEUS, Test System: PERIPHERAL BLOOD RETICULOCYTES, Species: MOUSE, Strain/Sex: BALB/C/MALE, Route: IP INJECTION, ONCE): inactive; positive (d 1 -2); positive at both dose levels on d 2 (negative by d 3)
- mutagenic call (End Point: IN VIVO MICRONUCLEUS, Test System: SPERMATID, Species: RAT, Strain/Sex: SPRAGUE-DAWLEY/MALE, Route: IP INJECTION): active; positive
- mutagenic call (End Point: IN VIVO MICRONUCLEUS, Test System: SPERMATIDS, Species: MOUSE, Strain/Sex: (102XC3H)F1/MALE, Route: IP INJECTION): active; positive (at 30 mg at 3 d after exposure)
- mutagenic call (End Point: IN VIVO MICRONUCLEUS, Test System: SPERMATIDS, Species: MOUSE, Strain/Sex: BALB/C/MALE, Route: IP INJECTION): active; positive
- mutagenic call (End Point: IN VIVO MICRONUCLEUS, Test System: SPERMATIDS, Species: RAT, Strain/Sex: LEWIS/MALE, Route: IP INJECTION): active; positive
- mutagenic call (End Point: IN VIVO MICRONUCLEUS, Test System: SPLENOCYTES, Species: MOUSE, Strain/Sex: (102XC3H)F1/MALE, Route: IP INJECTION): active; positive
- mutagenic call (End Point: IN VIVO MICRONUCLEUS, Test System: SPLENOCYTES, Species: RAT, Strain/Sex: LEWIS/MALE, Route: IP INJECTION): active; positive
- mutagenic call [1]: active; positive
- mutagenic call (Test System: AMES SALMONELLA TYPHIMURIUM, Strain/Indicator: TA1535, Metabolic Activation: NONE, Method: STANDARD PLATE): active; positive
- mutagenic call (Test System: CHINESE HAMSTER OVARY, Strain/Indicator: AS52/6-THIOGUANINE, Metabolic Activation: NONE): active; positive
- mutagenic call (Test System: MOUSE LYMPHOMA, Strain/Indicator: L5178Y (TK+/TK-), Metabolic Activation: NONE, Method: SUSPENSION/PLATE): active; positive
- mutagenic call (Test System: MOUSE LYMPHOMA, Strain/Indicator: L5178Y (TK+/TK-), Metabolic Activation: RAT, LIVER, S-9, AROCLOR 1254, Method: SUSPENSION/PLATE): active; positive
- mutagenic call (Test System: MOUSE LYMPHOMA, Strain/Indicator: L5178Y (TK+/TK-), Metabolic Activation: RAT, LIVER, S-9, Method: SUSPENSION/PLATE): active; positive
- mutagenic call (Test System: UDS MOUSE SPERM CELLS, Strain/Indicator: THY INCORP, Metabolic Activation: IN VIVO, Method: LIQUID SCINTILLATION COUNTING): active; positive

SMILES: CCOCCOC(C)=O
- mutagenic call [2]: inactive; negative
- mutagenic call (Test System: AMES SALMONELLA TYPHIMURIUM, Strain/Indicator: TA98, Metabolic Activation: RAT LIVER S-9, PHENOBARBITAL AND BETA-NAPHTHOFLAVONE, Method: PREINCUBATION): inactive; negative
- mutagenic call [3]: inactive; negative
- mutagenic call (Test System: AMES SALMONELLA TYPHIMURIUM, Strain/Indicator: TA100, Metabolic Activation: RAT LIVER S-9, PHENOBARBITAL AND BETA-NAPHTHOFLAVONE, Method: PREINCUBATION): inactive; negative
- mutagenic call (Test System: AMES SALMONELLA TYPHIMURIUM, Strain/Indicator: TA102, Metabolic Activation: NONE, Method: PREINCUBATION): inactive; negative
- mutagenic call (Test System: AMES SALMONELLA TYPHIMURIUM, Strain/Indicator: TA102, Metabolic Activation: RAT LIVER S-9, PHENOBARBITAL AND BETA-NAPHTHOFLAVONE, Method: PREINCUBATION): inactive; negative
- mutagenic call (Test System: AMES SALMONELLA TYPHIMURIUM, Strain/Indicator: TA104, Metabolic Activation: NONE, Method: PREINCUBATION): inactive; negative
- mutagenic call (Test System: AMES SALMONELLA TYPHIMURIUM, Strain/Indicator: TA104, Metabolic Activation: RAT LIVER S-9, PHENOBARBITAL AND BETA-NAPHTHOFLAVONE, Method: PREINCUBATION): inactive; negative
- mutagenic call [4]: inactive; negative
- mutagenic call (Test System: AMES SALMONELLA TYPHIMURIUM, Strain/Indicator: TA1535, Metabolic Activation: RAT LIVER S-9, PHENOBARBITAL AND BETA-NAPHTHOFLAVONE, Method: PREINCUBATION): inactive; negative
- mutagenic call (Test System: AMES SALMONELLA TYPHIMURIUM, Strain/Indicator: TA1537, Metabolic Activation: NONE, Method: PREINCUBATION): inactive; negative
- mutagenic call (Test System: AMES SALMONELLA TYPHIMURIUM, Strain/Indicator: TA1537, Metabolic Activation: RAT LIVER S-9, PHENOBARBITAL AND BETA-NAPHTHOFLAVONE, Method: PREINCUBATION): inactive; negative
- mutagenic call (Test System: E.COLI, Strain/Indicator: WP2UVRA/PKM101, Metabolic Activation: NONE, Method: PREINCUBATION): inactive; negative
- mutagenic call (Test System: E.COLI, Strain/Indicator: WP2UVRA/PKM101, Metabolic Activation: RAT LIVER S-9, PHENOBARBITAL AND BETA-NAPHTHOFLAVONE, Method: PREINCUBATION): inactive; negative
- mutagenic call (Test System: E.COLI, Strain/Indicator: WP2UVRA, Metabolic Activation: NONE, Method: PREINCUBATION): inactive; negative
- mutagenic call (Test System: E.COLI, Strain/Indicator: WP2UVRA, Metabolic Activation: RAT LIVER S-9, PHENOBARBITAL AND BETA-NAPHTHOFLAVONE, Method: PREINCUBATION): inactive; negative

SMILES: COc1nsc2ccc(OCC3CO3)cc12 (configuration not stated)
- mutagenic call [1]: active; positive

SMILES: Cn1c(N)nc2nc3ccccc3cc21
- mutagenic call (Test System: AMES SALMONELLA TYPHIMURIUM, Strain/Indicator: TA98, Metabolic Activation: RAT, LIVER, S-9, AROCLOR 1254A, Method: STANDARD PLATE): active; positive
- mutagenic call (Test System: AMES SALMONELLA TYPHIMURIUM, Strain/Indicator: YG1024, Metabolic Activation: RAT, LIVER, S-9, AROCLOR 1254A, Method: STANDARD PLATE): active; positive

SMILES: CNC(=O)c1ccccc1
- mutagenic call (Test System: AMES SALMONELLA TYPHIMURIUM, Strain/Indicator: TA97, Metabolic Activation: HAMSTER, LIVER, S-9, AROCLOR 1254 (10 OR 30%), Method: PREINCUBATION): inactive; negative
- mutagenic call (Test System: AMES SALMONELLA TYPHIMURIUM, Strain/Indicator: TA97, Metabolic Activation: NONE, Method: PREINCUBATION): inactive; negative
- mutagenic call (Test System: AMES SALMONELLA TYPHIMURIUM, Strain/Indicator: TA97, Metabolic Activation: RAT, LIVER, S-9, AROCLOR 1254 (10 OR 30%), Method: PREINCUBATION): inactive; negative
- mutagenic call (Test System: AMES SALMONELLA TYPHIMURIUM, Strain/Indicator: TA98, Metabolic Activation: HAMSTER, LIVER, S-9, AROCLOR 1254 (10 OR 30%), Method: PREINCUBATION): inactive; negative
- mutagenic call [2]: inactive; negative
- mutagenic call (Test System: AMES SALMONELLA TYPHIMURIUM, Strain/Indicator: TA98, Metabolic Activation: RAT, LIVER, S-9, AROCLOR 1254 (10 OR 30%), Method: PREINCUBATION): inactive; negative
- mutagenic call (Test System: AMES SALMONELLA TYPHIMURIUM, Strain/Indicator: TA100, Metabolic Activation: HAMSTER, LIVER, S-9, AROCLOR 1254 (10 OR 30%), Method: PREINCUBATION): inactive; negative
- mutagenic call [3]: inactive; negative
- mutagenic call (Test System: AMES SALMONELLA TYPHIMURIUM, Strain/Indicator: TA100, Metabolic Activation: RAT, LIVER, S-9, AROCLOR 1254 (10 OR 30%), Method: PREINCUBATION): inactive; negative
- mutagenic call (Test System: AMES SALMONELLA TYPHIMURIUM, Strain/Indicator: TA1535, Metabolic Activation: HAMSTER, LIVER, S-9, AROCLOR 1254 (10 OR 30%), Method: PREINCUBATION): inactive; negative
- mutagenic call [4]: inactive; negative
- mutagenic call (Test System: AMES SALMONELLA TYPHIMURIUM, Strain/Indicator: TA1535, Metabolic Activation: RAT, LIVER, S-9, AROCLOR 1254 (10 OR 30%), Method: PREINCUBATION): inactive; negative
